# ChEMBL document CHEMBL1140102, “Novel A-ring and B-ring modified combretastatin A-4 (CA-4) analogues endowed with interesting cytotoxic activity” (J Med Chem, 2008)
# How the values were obtained:
# NCI-H460 = assay: Cytotoxicity against human H460 cells by sulforhodamine B test; type: functional, cell-based
# BMEC = assay: Cytotoxicity against BMEC by sulforhodamine B test; type: cell-based; settings: Bos taurus
# [1] = Displacement of [3H]colchicine from tubulin by scintillation proximity assay
# HT-29 [2] = assay: Cytotoxicity against human HT29 cells by sulforhodamine B test; type: functional, cell-based
# HT-29 [3] = assay: Cell cycle arrest in human HT29 cells assessed as accumulation at S phase at 0.5 uM after 24 hrs by flow cytometry assay; type: functional
# HT-29 [4] = assay: Cell cycle arrest in human HT29 cells assessed as accumulation at G2/M phase at 0.5 uM after 24 hrs by flow cytometry assay; type: functional
# HT-29 [5] = assay: Cell cycle arrest in human HT29 cells assessed as accumulation at G0/G1 phase at 0.5 uM after 24 hrs by flow cytometry assay; type: functional
SMILES,IC50 (NCI-H460) [nM],IC50 (BMEC) [nM],IC50 [1] [nM],IC50 (HT-29 [2]) [nM],Activity (HT-29 [3]) [%],Activity (HT-29 [4]) [%],Activity (HT-29 [5]) [%]
COc1cc(/C=C\c2cc(O)c3ccsc3c2)cc2sccc12,312,250,,,,,
COc1cc(/C=C\c2cc(O)c3ccoc3c2)cc(OC)c1,,800,4000,,,,
COc1ccc(/C=C\c2cc(OC)c(OC)c(OC)c2)cc1O [COMBRETASTATIN A4],1.2,3.7,100,118,,,
COc1ccc(/C=C\c2cc(OC)c3ccsc3c2)cc1O,13,17,20,260,,,
COc1ccc(/C=C\c2ccc3c(c2)C(C)(C)CCC3(C)C)cc1O,,> 10000,,,,,
COc1cc2c(c(OC)c1OC)-c1ccc(OC)c(=O)cc1[C@@H](NC(C)=O)CC2 [COLCHICINE],,,1700,,,,
COc1ccc(/C=C\c2cc(OC)c3ccsc3c2)cc1,110,123,,,,,
COc1cc(/C=C\c2cc(O)c3ccsc3c2)cc2c1OCO2,,880,4900,,,,
COc1ccc(/C=C\c2cc(OC)c3c(c2)OCO3)cc1O [Combretastatin A-2],40,48,,> 1000,,,
COc1cc(/C=C\c2cc(O)c3ccoc3c2)cc2c1OCO2,,> 3000,7700,,,,
COc1ccc(/C=C\c2cc(OC)c3ccoc3c2)cc1O,19,35,20,420,,,
COc1ccc(/C=C\c2cc(OC)c3ccsc3c2)cc1N.Cl,19,20,6200,21,22,50,28
COc1ccc(/C=C\c2cc(OC)c3occc3c2)cc1O,12,35,50,590,,,
COc1ccc(/C=C/c2cc(OC)c3ccoc3c2)cc1O,,> 10000,6200,,,,
COc1cc(/C=C\c2cc(O)c3ccsc3c2)cc(OC)c1,,110,3800,,,,
